Results reported in patent US8067442B2, “Heterocyclic antiviral compounds” (Roche Palo Alto LLC, priority 2008, dated 2011).

Columns and labels:
[1] = in vitro; details: human
[2] = test system: HCV replicon cells (2209-23), genotype 1b replicon in human hepatoma Huh7 cells; assay: HCV replicon assay (Renilla luciferase reporter); format: cell-based, HCV genotype 1b; details: Hepatitis C virus, Huh-7, 72 h; 2209-23 cells, three days incubation
[3] = biological target: T1, HCV polymerase (NS5B570n-Con1) (Hepatitis C virus genotype 1b, UniProt Q9WMX2); assay: biochemical; parameters: species or system HCV Con1 strain
T1 construct: a 21 amino acid C-terminal deletion of full-length HCV polymerase; made in house; host or cells: E. coli BL21(DE3) pLysS, plasmid pET17b

[4] = test system: HCV; details: cited from earlier work

SMILES	CC50 [1] [nM]	IC50 [2] [nM]	melting point [°C]	IC50 [3] [nM]	serum levels of HCV-RNA ([4]; monotherapy / sole treatment)	patients in whom serum amino transferase levels are reduced to normal ([4]; monotherapy) [%]
CC(C)(C)c1cc(-c2ccc[nH]c2=O)cc2c(-c3ccc(N)cc3)coc12 [Compound I-86]	29200	346	248 to 250	–	–	–
CC(C)(C)c1cc(-c2ccc[nH]c2=O)cc2c(C(=O)N3CCC[C@H](CNS(C)(=O)=O)C3)coc12 [Compound I-100]	–	14	–	8	–	–
CC(C)(C)c1cc(-c2ccc[nH]c2=O)cc2c(C(=O)N3CC(O)C3)coc12 [Compound I-102]	–	–	264 to 266	135	–	–
CC(C)(C)c1cc(-c2ccc[nH]c2=O)cc2c(C(=O)c3cccc(O)c3)coc12 [Compound I-36, 3-[7-tert-Butyl-3-(3-hydroxy-benzoyl)-benzofuran-5-yl]-1H-pyridin-2-one]	–	–	268 to 269	38	–	–
CC(C)(C)c1cc(-c2ccc[nH]c2=O)cc2c(C(=O)N3CCC(CN)C3)coc12 (stereo not drawn) [Compound I-49]	–	–	> 300	104	–	–
COCc1cc(CNS(C)(=O)=O)ccc1-c1coc2c(C(C)(C)C)cc(-c3ccc[nH]c3=O)cc12 [Compound I-97, N-{4-[7-tert-Butyl-5-(2-oxo-1,2-dihydro-pyridin-3-yl)-benzofuran-3-yl]-3-methoxymethyl-benzyl}-methanesulfonamide]	–	–	128 to 130	515	–	–
Cc1ccc(-c2coc3c(C(C)(C)C)cc(-c4ccc[nH]c4=O)cc23)nc1 [Compound I-91, 3-[7-tert-Butyl-3-(5-methyl-pyridin-2-yl)-benzofuran-5-yl]-1H-pyridin-2-one]	–	–	295 to 297	326	–	–
CC(C)S(=O)(=O)NC[C@H]1CCN(C(=O)c2coc3c(C(C)(C)C)cc(-c4ccc[nH]c4=O)cc23)C1 [Compound I-108]	–	–	163 to 165	25	–	–
CC(C)(C)c1cc(-c2ccc[nH]c2=O)cc2c(C(=O)N3CCCC(CNS(C)(=O)=O)C3)csc12 (stereo not drawn) [Compound 114, N-{1-[7-tert-Butyl-5-(2-oxo-1,2-dihydro-pyridin-3-yl)-benzo[b]thiophene-3-carbonyl]-piperidin-3-ylmethyl}-methanesulfonamide]	–	–	175 to 177	3	–	–
CC(C)(C)c1cc(-c2ccc[nH]c2=O)cc2c(C(=O)N3CCC[C@H](N)C3)coc12 [Compound I-41]	–	–	269 to 270	126	–	–
CN(C[C@H]1CCN(C(=O)c2coc3c(C(C)(C)C)cc(-c4ccc[nH]c4=O)cc23)C1)S(C)(=O)=O [Compound I-105, N-{(S)-1-[7-tert-Butyl-5-(2-oxo-1,2-dihydro-pyridin-3-yl)-benzofuran-3-carbonyl]-pyrrolidin-3-ylmethyl}-N-methyl-methanesulfonamide]	–	–	155 to 157	25	–	–
CC(C)(C)c1cc(-c2ccc[nH]c2=O)cc2c(CC#N)coc12 [Compound I-5, [7-tert-Butyl-5-(2-oxo-1,2-dihydro-pyridin-3-yl)-benzofuran-3-yl]-acetonitrile]	–	–	231 to 232	330	–	–
CC(C)(C)c1cc(-c2ccc[nH]c2=O)cc2c(C(=O)Nc3nccs3)coc12 [Compound I-84]	–	–	> 300	357	–	–
Cn1cc(C(=O)N2CC[C@H](CNS(C)(=O)=O)C2)c2cc(-c3ccc[nH]c3=O)cc(C(C)(C)C)c21 [Compound I-111, N-{(S)-1-[7-tert-Butyl-1-methyl-5-(2-oxo-1,2-dihydro-pyridin-3-yl)-1H-indole-3-carbonyl]-pyrrolidin-3-ylmethyl}-methanesulfonamide]	–	–	168 to 170	8	–	–
CC(C)(C)c1cc(-c2cc(F)c[nH]c2=O)cc2c(C(=O)N3CC[C@H](CNS(C)(=O)=O)C3)coc12 [Compound I-92]	–	–	296 to 298	29	–	–
CC(C)(C)c1cc(-c2ccc[nH]c2=O)cc2c(C(=O)N3CCCC(CN)C3)coc12 (stereo not drawn) [Compound I-50]	–	–	150 to 155	51	–	–
NC(=O)c1ncn([C@@H]2O[C@H](CO)[C@@H](O)[C@H]2O)n1 [ribavirin, 1-((2R,3R,4S,5R)-3,4-Dihydroxy-5-hydroxymethyl-tetrahydro-furan-2-yl)-1H-[1,2,4]triazole-3-carboxylic acid amide]	–	–	–	–	does not lower	40
CC(C)(C)c1cc(-c2ccc[nH]c2=O)cc2c(-c3cccc(C(N)=O)c3)coc12 [Compound I-78, 3-[7-tert-Butyl-5-(2-oxo-1,2-dihydro-pyridin-3-yl)-benzofuran-3-yl]-benzamide]	12400	78	190 to 193	9	–	–
CN(Cc1ccc(-c2coc3c(C(C)(C)C)cc(-c4ccc[nH]c4=O)cc23)cc1)S(C)(=O)=O [Compound I-77]	–	–	243 to 245	36	–	–
CC(C)(C)c1cc(-c2ccc[nH]c2=O)cc2c(C(=O)N3CC[C@H](CNS(=O)(=O)C4CC4)C3)coc12 [Compound I-107]	–	–	158 to 160	17	–	–
CC(C)(C)c1cc(-c2ccc[nH]c2=O)cc2c(C(=O)N3CC(CO)C3)coc12 [Compound I-95]	–	–	292 to 293	43	–	–
CC(C)(C)c1cc(-c2ccc[nH]c2=O)cc2c(C(=O)N3CCC(NS(C)(=O)=O)CC3)coc12 [Compound I-99]	–	–	193 to 195	876	–	–
CC(C)(C)c1cc(-c2ccc[nH]c2=O)cc2ccoc12 [Compound I-2, 3-(7-tert-Butyl-benzofuran-5-yl)-1H-pyridin-2-one]	–	–	217 to 218	202	–	–
CC(C)(C)c1cc(-c2ccc[nH]c2=O)cc2c(C(=O)N3CC[C@H](CNS(C)(=O)=O)C3)coc12 [Compound I-72]	–	–	258 to 260	8	–	–
